Measured values reported in ChEMBL document CHEMBL1148832, “Rational design, structure, and biological evaluation of cyclic peptides mimicking the vascular endothelial growth factor” (J Med Chem, 2007).
Active and inactive are the calls of the source. The calls are words filed in the database; no cut-off is given here. *1 amine or outer side, *2 acyl side, *3 side chain or, on linkers, in order; H or OH if unused. Where a SMILES comes first, the peptide text is derived from it. Bridges are numbered along the chain shown (N, C = ends). [ ]: non-standard residue; d: D form. X1 = O=C([C@H](Cc1cc(=O)oc2cc(O)ccc12)N[*:1])[*:2]; hPhe = N[C@@H](CCc1ccccc1)C(=O)O; β3hE = N[C@@H](CCC(=O)O)CC(=O)O

Experiments:
[1] = target: Vascular endothelial growth factor receptor 1 (Homo sapiens, UniProt P17948); test: Displacement of biotinylated VEGF165 from human recombinant VEGFR1 by chemiluminescent assay
HUVEC = test: Inhibition of VEGF165-induced cell migration in HUVEC at 100 uM after 6 hrs by wound healing assay; format: functional, cell-based; settings: Homo sapiens

Chain of Vascular endothelial growth factor receptor 1 (P17948 whole entry): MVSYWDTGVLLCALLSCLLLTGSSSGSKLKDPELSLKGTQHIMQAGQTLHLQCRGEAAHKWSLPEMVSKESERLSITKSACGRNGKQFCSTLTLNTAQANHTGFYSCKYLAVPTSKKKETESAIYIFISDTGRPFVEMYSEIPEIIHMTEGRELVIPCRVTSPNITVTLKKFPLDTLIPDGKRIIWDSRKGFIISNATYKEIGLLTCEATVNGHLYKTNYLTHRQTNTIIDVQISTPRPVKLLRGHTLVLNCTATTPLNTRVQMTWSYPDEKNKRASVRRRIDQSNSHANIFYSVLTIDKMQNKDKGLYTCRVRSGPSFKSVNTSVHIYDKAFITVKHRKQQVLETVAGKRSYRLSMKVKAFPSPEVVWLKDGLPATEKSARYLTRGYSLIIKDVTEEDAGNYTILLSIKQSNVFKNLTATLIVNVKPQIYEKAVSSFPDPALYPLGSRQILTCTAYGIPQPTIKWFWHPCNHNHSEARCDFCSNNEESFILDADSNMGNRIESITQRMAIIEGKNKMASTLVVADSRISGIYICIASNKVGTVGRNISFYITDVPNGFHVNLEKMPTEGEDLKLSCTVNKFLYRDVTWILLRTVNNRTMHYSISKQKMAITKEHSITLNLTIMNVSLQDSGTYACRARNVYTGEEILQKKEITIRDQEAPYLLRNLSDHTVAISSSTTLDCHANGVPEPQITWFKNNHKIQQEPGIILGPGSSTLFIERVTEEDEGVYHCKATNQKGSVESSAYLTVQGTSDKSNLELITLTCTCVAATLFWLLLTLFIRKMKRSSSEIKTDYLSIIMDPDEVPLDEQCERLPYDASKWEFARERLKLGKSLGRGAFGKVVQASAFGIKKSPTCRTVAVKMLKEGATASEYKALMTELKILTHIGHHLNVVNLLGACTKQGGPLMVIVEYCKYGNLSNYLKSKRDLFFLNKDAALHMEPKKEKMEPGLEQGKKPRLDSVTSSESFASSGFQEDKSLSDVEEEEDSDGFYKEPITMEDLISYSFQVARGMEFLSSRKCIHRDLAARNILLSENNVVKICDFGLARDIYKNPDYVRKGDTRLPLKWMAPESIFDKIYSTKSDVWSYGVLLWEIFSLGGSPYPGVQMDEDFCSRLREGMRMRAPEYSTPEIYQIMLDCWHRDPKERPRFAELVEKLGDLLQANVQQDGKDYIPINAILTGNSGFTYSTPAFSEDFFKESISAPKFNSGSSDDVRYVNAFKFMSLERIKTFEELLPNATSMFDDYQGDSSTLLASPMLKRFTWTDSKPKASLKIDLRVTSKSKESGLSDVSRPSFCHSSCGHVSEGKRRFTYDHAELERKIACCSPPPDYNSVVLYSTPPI

IC50 [1] [µM] | SMILES | Activity (HUVEC)
19.3 | CC(C)C[C@@H]1NC(=O)CNC(=O)[C@H](CCC(=O)O)NC(=O)[C@H](Cc2cc(=O)oc3cc(O)ccc23)NC(=O)[C@H](CCc2ccccc2)NC(=O)CC[C@@H](C(N)=O)NC(=O)[C@H](CCC(=O)O)NC1=O ([hPhe][X1]EGLEE-NH2; lactam N-7) | 
 | CC(C)C[C@@H]1NC(=O)CNC(=O)[C@H](CCC(=O)O)NC(=O)[C@H](Cc2cc(=O)oc3cc(O)ccc23)NC(=O)[C@H](CCc2ccccc2)NC(=O)CC[C@@H](CC(N)=O)NC(=O)[C@H](CCC(=O)O)NC1=O ([hPhe][X1]EGLE[β3hE]-NH2; lactam N-7) | Active
 | CC(C)C[C@@H]1NC(=O)CNC(=O)[C@H](CCC(=O)O)NC(=O)[C@H](CC(=O)O)NC(=O)[C@H](Cc2ccc(O)cc2)NC(=O)[C@H](Cc2ccc(O)cc2)NC(=O)CC[C@@H](C(N)=O)NC(=O)[C@H](CCC(=O)O)NC1=O (YYDEGLEE-NH2; lactam N-8) | Active
